Here are results for 17 compounds from US20240050428A1 (Cullgen (Shanghai), Inc., priority 2020, published 2024).

Where two headings read alike, the source gives them in different places. Some results are limits rather than exact numbers.

Holding throughout (assay type): cell-based
One test concerns MV4;11 cells. The test can be described thus: Cell viability assay (CellTiter-Glo) in MV4;11 cells, alone or with gilteritinib. The following applies: Homo sapiens, MV4-11, 72 h, MV4;11 cells, CellTiter-Glo, read-out: MV4.
The test system of test [1] is MOLM-13 cells. The test can be described thus: Cell viability assay (CellTiter-Glo) in MOLM-13 cells, alone or with gilteritinib. The following applies: MOLM-13 cells; for IC50: Homo sapiens, MOLM-13, 72 h, CellTiter-Glo; for Sensitivity of FLT3-mutant AML cells to GSPT1 degrader upon FLT3 inhibition: with or without 20 nM gilteritinib, 3 days (FIG. 2A-2C).
Test [2] deals with MOLM-13 cells. Briefly: Cell viability / cell growth inhibition of MOLM-13 cells, GSPT1 degrader with or without gilteritinib. Particulars: combined with FLT3 inhibitor gilteritinib (20 nM in FIG. 2A-2C). As to the method:
FIG. 2A is a graph of cell viability in MOML-13 cells treated with varying doses of GS-002, with or without gilteritinib at 20 nM.
FIG. 2B is a graph of cell viability in MOML-13 cells treated with varying doses of GS-005, with or without gilteritinib at 20 nM.
FIG. 2C is a graph of cell viability in MOML-13 cells treated with varying doses of GS-006, with or without gilteritinib at 20 nM.
When combined with FLT3 inhibitor gilteritinib, the potency of some of the compounds was increased synergistically.

[3] abbreviates: with 10 nM gilteritinib, 3 days, 11 IC50 gilteritinib.
Where [4] appears, read: without gilteritinib, 3 days, 11 IC50.
[5] abbreviates: with 20 nM gilteritinib, 3 days, read-out: MOLM-13 IC50 gilteritinib.
Setting [6] is: without gilteritinib, 3 days, read-out: MOLM-13 IC50.
The mark [7] stands for this setting: compound alone (without gilteritinib), three days, 11 IC50.
Setting [8] is: compound with gilteritinib 10 nM, three days, 11 IC50 gilteritinib.
The mark [9] stands for this setting: compound alone (without gilteritinib), three days, read-out: MOLM-13 IC50.
Where [10] appears, read: compound with gilteritinib 20 nM, three days, read-out: MOLM-13 IC50 gilteritinib.

Turning to `O=C1CCC(N2C(=O)c3ccc(NCCCCCC(=O)N4CCC(n5cc(-c6cnc7cccc(Br)c7n6)cn5)CC4)cc3C2=O)C(=O)N1` (stereo not shown) [GS-002, 5-((6-(4-(4-(8-bromoquinoxalin-2-yl)-1H-pyrazol-1-yl)piperidin-1-yl)-6-oxohexyl)amino)-2-(2,6-dioxopiperidin-3-yl)isoindoline-1,3-dione], the IC50 in the test with MV4;11 cells (setting [3]) was determined as 3 nM; in the test with MV4;11 cells (setting [4]), 227 nM; in the test with MOLM-13 cells [1] (setting [5]), 1.9 nM; in the test on MOLM-13 cells [1] (setting [6]), 583 nM. Further, the “Sensitivity of FLT3-mutant AML cells to GSPT1 degrader upon FLT3 inhibition” value with MOLM-13 cells [1] is listed as “remarkably increases sensitivity”. The “potency combined with gilteritinib, cell growth inhibition” value in the test with MOLM-13 cells [2] was “significantly improved”.
As to `O=C1CCC(N2C(=O)c3ccc(NCCCCCC(=O)N4CCC(n5cc(-c6cnc7ccccc7n6)cn5)CC4)cc3C2=O)C(=O)N1` (stereo not shown) [GS-005, 2-(2,6-dioxopiperidin-3-yl)-5-((6-oxo-6-(4-(4-(quinoxalin-2-yl)-1H-pyrazol-1-yl)piperidin-1-yl)hexyl)amino)isoindoline-1,3-dione], the IC50 came out at 1.8 nM with MV4;11 cells (setting [3]), 6 nM in the test on MV4;11 cells (setting [4]), 0.2 nM in the test with MOLM-13 cells [1] (setting [5]) and 11.8 nM in the test on MOLM-13 cells [1] (setting [6]). Besides, the “Sensitivity of FLT3-mutant AML cells to GSPT1 degrader upon FLT3 inhibition” value in the test with MOLM-13 cells [1] was “remarkably increases sensitivity”. Besides, the “potency combined with gilteritinib, cell growth inhibition” value with MOLM-13 cells [2] is listed as “significantly improved”.
Take `O=C1CCC(N2C(=O)c3ccc(NCCC[C@H]4C[C@H](n5cc(-c6nccc7[nH]ncc67)c(C6CC6)n5)C4)cc3C2=O)C(=O)N1` (stereo partly drawn) [GS-626, 5-((3-(trans-3-(3-Cyclopropyl-4-(1H-pyrazolo[4,3-c]pyridin-4-yl)-1H-pyrazol-1-yl)cyclobutyl)propyl)amino)-2-(2,6-dioxopiperidin-3-yl)isoindoline-1,3-dione]: the IC50 in the test on MV4;11 cells (setting [7]) was 10 to 100 nM; in the test on MV4;11 cells (setting [8]) it was 10 to 100 nM; in the test on MOLM-13 cells [1] (setting [9]) it was greater than 1000 nM; in the test with MOLM-13 cells [1] (setting [10]) it was 10 to 100 nM.
For the compound `O=C1CCC(N2C(=O)c3ccc(CC[C@H]4C[C@H](n5cc(-c6cnc7ccccc7n6)c(C6CC6)n5)C4)cc3C2=O)C(=O)N1` (stereo partly drawn) [GS-627, 5-(2-(trans-3-(3-Cyclopropyl-4-(quinoxalin-2-yl)-1H-pyrazol-1-yl)cyclobutyl)ethyl)-2-(2,6-dioxopiperidin-3-yl)isoindoline-1,3-dione], the IC50 in the test on MV4;11 cells (setting [7]), with MV4;11 cells (setting [8]), in the test with MOLM-13 cells [1] (setting [9]) and with MOLM-13 cells [1] (setting [10]) was greater than 1000 nM in each case.
On to `O=C1CCC(N2C(=O)c3ccc(NCCC[C@H]4C[C@H](n5cc(-c6nccc7cnccc67)c(C6CC6)n5)C4)cc3C2=O)C(=O)N1` (stereo partly drawn) [GS-628, 5-((3-(trans-3-(3-Cyclopropyl-4-(2,6-naphthyridin-1-yl)-1H-pyrazol-1-yl)cyclobutyl)propyl)amino)-2-(2,6-dioxopiperidin-3-yl)isoindoline-1,3-dione], for which the IC50 in the test with MV4;11 cells (setting [7]) was greater than 1000 nM; with MV4;11 cells (setting [8]), 10 to 100 nM; in the test on MOLM-13 cells [1] (setting [9]), greater than 1000 nM; in the test with MOLM-13 cells [1] (setting [10]) it was 10 to 100 nM.
As for `Cc1nc(-c2cn([C@H]3C[C@H](CCc4ccc5c(c4)C(=O)N(C4CCC(=O)NC4=O)C5=O)C3)nc2C2CC2)ccc1F` (stereo partly drawn) [GS-629, 5-(2-(trans-3-(3-Cyclopropyl-4-(5-fluoro-6-methylpyridin-2-yl)-1H-pyrazol-1-yl)cyclobutyl)ethyl)-2-(2,6-dioxopiperidin-3-yl)isoindoline-1,3-dione], the IC50 in the test with MV4;11 cells (setting [7]) is greater than 1000 nM; in the test on MV4;11 cells (setting [8]), 100 to 1000 nM; with MOLM-13 cells [1] (setting [9]), greater than 1000 nM; in the test on MOLM-13 cells [1] (setting [10]) it was 100 to 1000 nM.
For the compound `O=C1CCC(N2C(=O)c3ccc(NCCC[C@H]4C[C@H](n5cc(-c6nccc7ccncc67)c(C6CC6)n5)C4)cc3C2=O)C(=O)N1` (stereo partly drawn) [GS-630, 5-((3-(trans-3-(3-Cyclopropyl-4-(2,7-naphthyridin-1-yl)-1H-pyrazol-1-yl)cyclobutyl)propyl)amino)-2-(2,6-dioxopiperidin-3-yl)isoindoline-1,3-dione], the IC50 with MV4;11 cells (setting [7]) is 100 to 1000 nM; with MV4;11 cells (setting [8]) it was less than 10 nM; in the test on MOLM-13 cells [1] (setting [9]), greater than 1000 nM; in the test on MOLM-13 cells [1] (setting [10]), less than 10 nM.
`O=C1CCC(N2C(=O)c3ccc(NC[C@H]4C[C@H](n5cc(C6CCCC6)c(C6CC6)n5)C4)cc3C2=O)C(=O)N1` (stereo partly drawn) [GS-631, 5-(((trans-3-(4-Cyclopentyl-3-cyclopropyl-1H-pyrazol-1-yl)cyclobutyl)methyl)amino)-2-(2,6-dioxopiperidin-3-yl)isoindoline-1,3-dione]: the IC50 fell in the range of 100 to 1000 nM in the test with MV4;11 cells (setting [7]), 10 to 100 nM in the test with MV4;11 cells (setting [8]), 100 to 1000 nM with MOLM-13 cells [1] (setting [9]) and 10 to 100 nM with MOLM-13 cells [1] (setting [10]).
`O=C1CCC(N2C(=O)c3ccc(NC[C@H]4C[C@H](n5cc(C6CC6)c(C6CC6)n5)C4)cc3C2=O)C(=O)N1` (stereo partly drawn) [GS-632, 5-(((trans-3-(3,4-Dicyclopropyl-1H-pyrazol-1-yl)cyclobutyl)methyl)amino)-2-(2,6-dioxopiperidin-3-yl)isoindoline-1,3-dione]: the IC50 in the test with MV4;11 cells (setting [7]) was 100 to 1000 nM; with MV4;11 cells (setting [8]), 100 to 1000 nM; with MOLM-13 cells [1] (setting [9]) it was greater than 1000 nM; with MOLM-13 cells [1] (setting [10]), 100 to 1000 nM.
For `CC1CCCCC1c1cn([C@H]2C[C@H](CNc3ccc4c(c3)C(=O)N(C3CCC(=O)NC3=O)C4=O)C2)nc1C1CC1` (stereo partly drawn) [GS-633, 5-(((trans-3-(3-Cyclopropyl-4-(2-methylcyclohexyl)-1H-pyrazol-1-yl)cyclobutyl)methyl)amino)-2-(2,6-dioxopiperidin-3-yl)isoindoline-1,3-dione], the IC50 with MV4;11 cells (setting [7]) was 10 to 100 nM; with MV4;11 cells (setting [8]) it was less than 10 nM; in the test with MOLM-13 cells [1] (setting [9]), 10 to 100 nM; with MOLM-13 cells [1] (setting [10]), 10 to 100 nM.
As to `O=C1CCC(N2C(=O)c3ccc(NC[C@H]4C[C@H](n5cc(C6CCCCC6O)c(C6CC6)n5)C4)cc3C2=O)C(=O)N1` (stereo partly drawn) [GS-634, 5-(((trans-3-(3-Cyclopropyl-4-(2-hydroxycyclohexyl)-1H-pyrazol-1-yl)cyclobutyl)methyl)amino)-2-(2,6-dioxopiperidin-3-yl)isoindoline-1,3-dione], the IC50 was 10 to 100 nM with MV4;11 cells (setting [7]), less than 10 nM with MV4;11 cells (setting [8]), 100 to 1000 nM with MOLM-13 cells [1] (setting [9]) and 10 to 100 nM in the test on MOLM-13 cells [1] (setting [10]).
For the compound `Cc1nc(-c2cn([C@H]3C[C@H](CNc4ccc5c(c4)C(=O)N(C4CCC(=O)NC4=O)C5=O)C3)nc2C(F)F)ccc1F` (stereo partly drawn) [GS-635, 5-(((trans-3-(3-(Difluoromethyl)-4-(5-fluoro-6-methylpyridin-2-yl)-1H-pyrazol-1-yl)cyclobutyl)methyl)amino)-2-(2,6-dioxopiperidin-3-yl)isoindoline-1,3-dione], the IC50 with MV4;11 cells (setting [7]) was 10 to 100 nM; with MV4;11 cells (setting [8]), less than 10 nM; with MOLM-13 cells [1] (setting [9]) it was 10 to 100 nM; in the test with MOLM-13 cells [1] (setting [10]), less than 10 nM.
For the compound `Cc1cccc(-c2cn([C@H]3C[C@H](CNc4ccc5c(c4)C(=O)N(C4CCC(=O)NC4=O)C5=O)C3)nc2C(=O)N(C)C)n1` (stereo partly drawn) [GS-636, 1-(trans-3-(((2-(2,6-dioxopiperidin-3-yl)-1,3-dioxoisoindolin-5-yl)amino)methyl)cyclobutyl)-N,N-dimethyl-4-(6-methylpyridin-2-yl)-1H-pyrazole-3-carboxamide], the IC50 with MV4;11 cells (setting [7]), with MV4;11 cells (setting [8]), in the test with MOLM-13 cells [1] (setting [9]) and with MOLM-13 cells [1] (setting [10]) was greater than 1000 nM throughout.
For the compound `CNC(=O)c1nn([C@H]2C[C@H](CNc3ccc4c(c3)C(=O)N(C3CCC(=O)NC3=O)C4=O)C2)cc1-c1cccc(C)n1` (stereo partly drawn) [GS-637, 1-(trans-3-(((2-(2,6-dioxopiperidin-3-yl)-1,3-dioxoisoindolin-5-yl)amino)methyl)cyclobutyl)-N-methyl-4-(6-methylpyridin-2-yl)-1H-pyrazole-3-carboxamide], the IC50 with MV4;11 cells (setting [7]) is 10 to 100 nM; in the test on MV4;11 cells (setting [8]), less than 10 nM; with MOLM-13 cells [1] (setting [9]) it was 100 to 1000 nM; in the test on MOLM-13 cells [1] (setting [10]) it was 10 to 100 nM.
Take `Cc1cccc(-c2cn([C@H]3C[C@H](CNc4ccc5c(c4)C(=O)N(C4CCC(=O)NC4=O)C5=O)C3)nc2C2CCNCC2)n1` (stereo partly drawn) [GS-638, 2-(2,6-Dioxopiperidin-3-yl)-5-(((trans-3-(4-(6-methylpyridin-2-yl)-3-(piperidin-4-yl)-1H-pyrazol-1-yl)cyclobutyl)methyl)amino)isoindoline-1,3-dione]: the IC50 in the test with MV4;11 cells (setting [7]), with MV4;11 cells (setting [8]), with MOLM-13 cells [1] (setting [9]) and with MOLM-13 cells [1] (setting [10]) was greater than 1000 nM in each case.
Regarding `Cc1nn([C@H]2C[C@H](CCCNc3ccc4c(c3)C(=O)N(C3CCC(=O)N(C)C3=O)C4=O)C2)cc1-c1cnc2ccccc2n1` (stereo partly drawn) [GS-639, 2-(1-Methyl-2,6-dioxopiperidin-3-yl)-5-((3-(trans-3-(3-methyl-4-(quinoxalin-2-yl)-1H-pyrazol-1-yl)cyclobutyl)propyl)amino)isoindoline-1,3-dione], the IC50 in the test on MV4;11 cells (setting [7]), with MV4;11 cells (setting [8]), with MOLM-13 cells [1] (setting [9]) and in the test with MOLM-13 cells [1] (setting [10]) was greater than 1000 nM throughout.
`CCc1nc(C(N)=O)c(Nc2ccc(N3CCC(N4CCN(C)CC4)CC3)c(OC)c2)nc1NC1CCOCC1` [gilteritinib, reference compound]: the figures for the IC50 in the test with MV4;11 cells (setting [4]) and with MOLM-13 cells [1] (setting [6]) were 2.3 nM and 7 nM, respectively.
